Results published in ChEMBL document CHEMBL1153145, “Novel lead for potent inhibitors of breast cancer resistance protein (BCRP)” (Bioorg Med Chem Lett, 2010).

Tests used:
[1] = target: T1, Broad substrate specificity ATP-binding cassette transporter ABCG2 (Homo sapiens, UniProt Q9UNQ0); assay: Inhibition of BCRP expressed in MDCK cells by pheophorbide A assay; assay type: cell-based
T1 sequence (Q9UNQ0 whole entry): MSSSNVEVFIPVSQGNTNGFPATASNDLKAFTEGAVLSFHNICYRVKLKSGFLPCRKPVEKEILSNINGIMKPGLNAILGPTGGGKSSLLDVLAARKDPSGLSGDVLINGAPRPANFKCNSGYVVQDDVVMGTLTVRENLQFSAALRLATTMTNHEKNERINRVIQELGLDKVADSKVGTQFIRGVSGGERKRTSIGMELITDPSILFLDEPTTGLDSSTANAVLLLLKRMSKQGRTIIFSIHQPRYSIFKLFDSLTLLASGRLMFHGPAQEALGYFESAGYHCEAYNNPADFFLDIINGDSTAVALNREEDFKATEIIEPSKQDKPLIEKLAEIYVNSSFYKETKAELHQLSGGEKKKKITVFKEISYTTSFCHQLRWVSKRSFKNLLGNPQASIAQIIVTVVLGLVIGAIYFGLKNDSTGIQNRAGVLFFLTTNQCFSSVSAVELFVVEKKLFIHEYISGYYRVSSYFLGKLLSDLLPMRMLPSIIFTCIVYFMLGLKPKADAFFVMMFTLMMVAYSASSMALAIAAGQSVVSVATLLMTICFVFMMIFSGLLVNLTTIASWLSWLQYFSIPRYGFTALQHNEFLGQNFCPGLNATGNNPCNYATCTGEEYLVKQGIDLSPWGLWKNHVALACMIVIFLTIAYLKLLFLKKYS

[2] = target: T1, Broad substrate specificity ATP-binding cassette transporter ABCG2; assay: Inhibition of BCRP expressed in MCF7 MX cells by Hoechst 33342 staining; assay type: cell-based
[3] = target: Multidrug resistance-associated protein 1 (Homo sapiens, UniProt P33527); assay: Inhibition of MRP1 assessed as calcein AM accumulation by fluorescence assay
Chain of Multidrug resistance-associated protein 1 (P33527 whole entry): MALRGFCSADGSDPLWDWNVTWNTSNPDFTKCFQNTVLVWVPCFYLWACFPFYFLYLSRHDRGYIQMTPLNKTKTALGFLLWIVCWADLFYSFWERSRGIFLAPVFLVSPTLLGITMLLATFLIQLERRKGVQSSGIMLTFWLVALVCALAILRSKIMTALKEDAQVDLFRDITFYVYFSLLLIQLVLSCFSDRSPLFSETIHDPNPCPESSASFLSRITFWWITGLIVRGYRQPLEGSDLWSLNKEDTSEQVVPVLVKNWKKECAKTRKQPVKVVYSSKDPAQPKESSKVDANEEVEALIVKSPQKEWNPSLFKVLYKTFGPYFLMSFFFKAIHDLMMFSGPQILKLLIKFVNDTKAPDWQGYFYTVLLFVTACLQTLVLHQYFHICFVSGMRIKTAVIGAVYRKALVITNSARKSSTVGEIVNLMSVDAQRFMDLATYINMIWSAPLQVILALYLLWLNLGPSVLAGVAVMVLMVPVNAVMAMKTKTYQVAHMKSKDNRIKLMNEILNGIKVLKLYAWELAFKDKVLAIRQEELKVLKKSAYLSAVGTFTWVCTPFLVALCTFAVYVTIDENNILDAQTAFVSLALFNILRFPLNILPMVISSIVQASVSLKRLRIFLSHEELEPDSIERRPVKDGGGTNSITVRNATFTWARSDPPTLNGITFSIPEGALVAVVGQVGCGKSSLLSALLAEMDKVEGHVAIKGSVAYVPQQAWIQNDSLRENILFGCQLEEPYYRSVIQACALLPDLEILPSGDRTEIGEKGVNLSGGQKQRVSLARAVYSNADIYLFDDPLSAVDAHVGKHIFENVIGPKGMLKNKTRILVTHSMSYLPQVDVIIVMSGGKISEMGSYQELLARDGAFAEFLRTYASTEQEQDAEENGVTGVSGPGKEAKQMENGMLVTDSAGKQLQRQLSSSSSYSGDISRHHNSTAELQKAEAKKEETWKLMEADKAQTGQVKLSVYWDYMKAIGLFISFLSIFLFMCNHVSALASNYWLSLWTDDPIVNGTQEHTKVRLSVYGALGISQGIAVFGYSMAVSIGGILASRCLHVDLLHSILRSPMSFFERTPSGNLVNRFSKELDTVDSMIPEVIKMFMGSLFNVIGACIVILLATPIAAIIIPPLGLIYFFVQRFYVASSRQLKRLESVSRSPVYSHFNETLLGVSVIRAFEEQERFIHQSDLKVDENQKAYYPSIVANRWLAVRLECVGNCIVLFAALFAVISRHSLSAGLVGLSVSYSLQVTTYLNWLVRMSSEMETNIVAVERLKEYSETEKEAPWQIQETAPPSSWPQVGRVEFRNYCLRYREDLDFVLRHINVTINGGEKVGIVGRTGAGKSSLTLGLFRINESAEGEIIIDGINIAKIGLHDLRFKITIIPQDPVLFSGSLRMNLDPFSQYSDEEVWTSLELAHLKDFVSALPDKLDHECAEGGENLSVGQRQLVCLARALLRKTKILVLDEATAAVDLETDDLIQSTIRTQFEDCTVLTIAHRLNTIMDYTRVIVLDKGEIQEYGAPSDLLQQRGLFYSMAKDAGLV

| IC50 [1] [µM] | IC50 [2] [µM] | IC50 [3] [µM] | Structure (SMILES) |
| --- | --- | --- | --- |
| 0.86 | 0.93 | > 20 | COc1ccc(C(=O)Nc2ccccc2C(=O)Nc2ccc(CCN3CCc4cc(OC)c(OC)cc4C3)cc2)cc1OC |
| 4.38 | 6.92 | – | COc1cc2c(cc1OC)CN(CCc1ccc(NC(=O)c3ccc([N+](=O)[O-])cc3)cc1)CC2 |
| 0.85 | 0.68 | – | COc1cc2c(cc1OC)CN(CCc1ccc(NC(=O)c3cc(OC)c(OC)cc3NC(=O)c3cnc4ccccc4c3)cc1)CC2 |
| 45.7 | 51.3 | – | O=C(Nc1ccc(CCN2CCc3ccccc3C2)cc1)c1ccccc1[N+](=O)[O-] |
| 20.9 | 17.8 | – | Nc1ccccc1C(=O)Nc1ccc(CCN2CCc3ccccc3C2)cc1 |
| 20.7 | 32.4 | – | COc1cc2c(cc1OC)CN(CCc1ccc(NC(=O)c3ccccc3N)cc1)CC2 |
| 40 | 77.6 | – | COc1cc2c(cc1OC)CN(CCc1ccc(NC(=O)c3ccccc3[N+](=O)[O-])cc1)CC2 |
| 6.98 | 10.2 | – | COc1ccc(C(=O)Nc2ccccc2NC(=O)Nc2ccc(CCN3CCc4cc(OC)c(OC)cc4C3)cc2)cc1OC |
| 2.61 | 3.89 | – | COc1cc2c(cc1OC)CN(CCc1ccc(NC(=O)Nc3ccc([N+](=O)[O-])cc3)cc1)CC2 |
| 9.08 | 10.2 | – | COc1cc2c(cc1OC)CN(CCc1ccc(NC(=O)Nc3ccccc3[N+](=O)[O-])cc1)CC2 |
| 46.4 | 74.1 | – | COc1cc2c(cc1OC)CN(CCc1ccc(NC(=O)Nc3ccc(N)cc3)cc1)CC2 |
| 58.4 | 66.1 | – | COc1cc2c(cc1OC)CN(CCc1ccc(NC(=O)Nc3ccccc3N)cc1)CC2 |
| 0.5 | 0.54 | > 20 | COc1cc2c(cc1OC)CN(CCc1ccc(NC(=O)c3ccccc3NC(=O)Nc3ccc([N+](=O)[O-])cc3)cc1)CC2 |
| 0.63 | 0.69 | > 20 | COc1cc2c(cc1OC)CN(CCc1ccc(NC(=O)c3ccccc3NC(=O)c3ccc([N+](=O)[O-])cc3)cc1)CC2 |
| 98.2 | 219 | – | COc1cc2c(cc1OC)CN(CCc1ccc(NC(=O)c3ccc(N)cc3)cc1)CC2 |
| 74.1 | 102 | – | Nc1ccccc1NC(=O)Nc1ccc(CCN2CCc3ccccc3C2)cc1 |
| 8.71 | 6.76 | – | O=C(Nc1ccc(CCN2CCc3ccccc3C2)cc1)Nc1ccccc1[N+](=O)[O-] |
